Reference: PMC6264278, “Corydaline Inhibits Multiple Cytochrome P450 and UDP-Glucuronosyltransferase Enzyme Activities in Human Liver Microsomes” (Molecules, 2011)

Molecular target: T1, UGT2B7 (Homo sapiens, UniProt P16662)
T1 construct: using pooled human liver microsomes; tissue BD Gentest Co. H161; host or cells: pooled human liver microsomes
T1 sequence (P16662 24-529): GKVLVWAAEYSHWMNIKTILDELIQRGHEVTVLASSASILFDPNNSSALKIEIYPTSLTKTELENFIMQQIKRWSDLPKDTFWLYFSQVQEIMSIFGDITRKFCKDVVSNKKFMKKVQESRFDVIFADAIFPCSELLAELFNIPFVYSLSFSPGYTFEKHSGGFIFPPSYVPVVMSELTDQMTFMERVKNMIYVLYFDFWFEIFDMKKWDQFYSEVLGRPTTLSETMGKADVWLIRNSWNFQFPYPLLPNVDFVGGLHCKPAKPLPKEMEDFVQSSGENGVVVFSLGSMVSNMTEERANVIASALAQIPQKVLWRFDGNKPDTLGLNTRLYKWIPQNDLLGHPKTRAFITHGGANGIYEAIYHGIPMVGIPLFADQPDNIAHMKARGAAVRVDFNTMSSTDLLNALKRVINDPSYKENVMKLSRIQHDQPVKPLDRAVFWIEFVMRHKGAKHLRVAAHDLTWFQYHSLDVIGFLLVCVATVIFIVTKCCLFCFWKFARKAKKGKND
Test: UGT2B7 azidothymidine glucuronidation inhibition in pooled human liver microsomes
Type: in vitro ADME
Details: pooled human liver microsomes (H161), 100 μM azidothymidine, no inhibition at 1,000 μM of corydaline
Procedure: The inhibitory potencies (IC50 values) of corydaline were also determined with UGT assays in the presence and absence of corydaline (final concentrations of 1–1,000 μM with acetonitrile concentration less than 0.5% v/v) using pooled human liver microsomes. 17β-Estradiol 3-glucuronidation, trifluoperazine glucuronidation, propofol glucuronidation, and azidothymidine glucuronidation activities were determined as probe activities for UGT1A1, UGT1A4, UGT1A9, and UGT2B7, respectively, using LC/MS/MS. Incubation mixtures were prepared in a total volume of 100 μL, as follows: Pooled human liver microsomes (0.2 mg/mL for 17β-estradiol, trifluoperazine and azidothymidine; 0.1 mg/mL for propofol), 2 mM UDPGA, 25 μg/mL alamethicin, 10 mM MgCl2, 50 mM tris buffer (pH 7.4), UGT-isoform specific probe substrate (20 μM 17β-estradiol for UGT1A1, 5 μM trifluoperazine for UGT1A4, 10 μM propofol for UGT1A9, or 100 μM azidothymidine for UGT2B7), and various concentrations of corydaline (1−1000 μM). […]
Glucuronides produced from UGT isoform-specific substrates were respectively determined by LC/MS/MS. […] Quantification was performed by SRM of the [M+H]^+ ion for trifluoperazine glucuronide and azidothymidine glucuronide or [M−H]^− for 17β-estradiol 3-glucuronide and propofol glucuronide and the related product ion for each metabolite. […]

## COc1cc2c(cc1OC)C1C(C)c3ccc(OC)c(OC)c3CN1CC2 (centres unmarked) [Corydaline, 2,3,9,10-tetramethoxy-13-methyl-5,8,13,13a-tetrahydro-6H-isoquino[3,2-a]isoquinoline]
  IC50, UGT2B7 azidothymidine glucuronidation: not inhibited
Listed as corydaline
  IC50, UGT2B7 azidothymidine glucuronidation: No inhibition *
